Columns and labels:
[1] = test system: DU-145; assay: NCI60 anti-cancer screening; conditions: for GI 100% / GI50: DU-145; for GI 100%: Prostate Cancer; for GI50 / CC50: Homo sapiens; for CC50: DU-145, read-out: LC 50%
[2] = test system: PARP-1 cleavage in BJ-TERT/LT/ST/RAS^V12 cells; assay: Western blot of PARP-1 cleavage upon compound treatment; type: cell-based, human; conditions: Western blot with anti-PARP-1 antibody
Description: 2×10^6 BJ-TERT/LT/ST/RAS^V12 cells were seeded in 10 cm dishes and treated with 1 μM staurosporine, 10 μg/mL erastin, 20 μg/mL Compound 3, and 1 μg/mL Compound 27 for 16 h. Both dying cells and live cells in each 10 cm dish were harvested and collected in the same 15 mL tubes by centrifuging cell suspension at 1,000 rpm for 5 min. Cell pellets were washed three times with PBS and cells were lysed in 200 μL of denaturing lysis buffer (50 mM HEPES KOH [pH 7.4], 40 mM NaCl, 2 mM EDTA, 1.5 mM Na3VO4, 50 mM NaF, 10 mM sodium pyrophosphate, 10 mM sodium β-glycerophosphate, 0.5% Triton X-100, and protease inhibitor tablet [Roche, cat.#11836170001]). Protein content was quantified using a Bio-Rad protein assay reagent (Bio-Rad, cat.#500-00006). Equal amounts of protein were resolved on SDS-polyacrylamide gels. The electrophoresed proteins were transblotted onto a PVDF membrane, blocked with 5% milk, and incubated with rabbit primary antibodies specific to: PARP (Santa Cruz, cat.#sc-7150), cleaved caspase-3 (Cell Signaling Technology, cat.#9661) overnight at 4° C. The membrane was then incubated in IRDye 800 goat anti-rabbit antibody (Li-cor Bioscience cat.#926-32211) at 1:3,000 dilutions for 45 min at room temperature. After washing off the unbound antibodies, membranes were scanned using the Odyssey™ Imaging System (Li-cor Bioscience).

[3] = test system: A498; assay: NCI60 anti-cancer screening
[4] = test system: MCF-7; assay: NCI60 anti-cancer screening; conditions: for GI50 / CC50: Homo sapiens; for GI50: MCF7; for CC50: MCF7, read-out: LC 50%; for GI 100%: MCF-7, Breast Cancer
[5] = test system: A549/ATCC; assay: NCI60 anti-cancer screening
[6] = test system: OVCAR-5; assay: NCI60 anti-cancer screening
[7] = test system: OVCAR-8; assay: NCI60 anti-cancer screening; conditions: for GI50 / CC50: Homo sapiens; for GI50 / GI 100%: OVCAR-8; for CC50: OVCAR-8, read-out: LC 50%; for GI 100%: Ovarian Cancer
[8] = test system: NCI-H226; assay: NCI60 anti-cancer screening
[9] = test system: OVCAR-3; conditions: Ovarian Cancer
[10] = test system: NCI-H460; assay: NCI60 anti-cancer screening
[11] = test system: IGROV1; assay: NCI60 anti-cancer screening
[12] = test system: U251; assay: NCI60 anti-cancer screening
[13] = test system: SK-OV-3; assay: NCI60 anti-cancer screening
[14] = test system: EKVX; assay: NCI60 anti-cancer screening
[15] = test system: NCI-H322M; assay: NCI60 anti-cancer screening
[16] = test system: HL-60(TB); conditions: Leukemia
[17] = test system: HCT-15; assay: NCI60 anti-cancer screening
[18] = test system: SNB-19; assay: NCI60 anti-cancer screening
[19] = test system: SK-MEL-5; assay: NCI60 anti-cancer screening; conditions: for GI50 / CC50: Homo sapiens; for GI50 / GI 100%: SK-MEL-5; for CC50: SK-MEL-5, read-out: LC 50%; for GI 100%: Melanoma
[20] = test system: SK-MEL-28; assay: NCI60 anti-cancer screening; conditions: for GI50 / CC50: Homo sapiens; for GI50 / GI 100%: SK-MEL-28; for CC50: SK-MEL-28, read-out: LC 50%; for GI 100%: Melanoma
[21] = test system: HCC-2998; assay: NCI60 anti-cancer screening
[22] = test system: CAKI-1; assay: NCI60 anti-cancer screening

Compound: COC(=O)c1ccc(C2c3[nH]c4ccccc4c3CC(C(=O)OC)N2C(=O)CCl)cc1 (centres unmarked) [Compound 27]
- GI 100% [1]: 1.4 µM
- GI50 [1]: 0.308 µM
- CC50 [1]: 4.01 µM
- PARP-1 cleavage / type of cell death [2]: activate a non-apoptotic pathway
- GI 100% ([3]; A498, Renal Cancer): 4.52 µM
- GI50 ([3]; Homo sapiens, A498): 1.83 µM
- CC50 ([3]; Homo sapiens, A498, read-out: LC 50%): > 10 µM
- GI50 [4]: 0.782 µM
- CC50 [4]: > 10 µM
- GI 100% [4]: 3.98 µM
- GI 100% ([5]; A549/ATCC, Non-small cell lung carcinoma): >10 µM
- GI50 ([5]; Homo sapiens, A549): 2.51 µM
- CC50 ([5]; Homo sapiens, A549, read-out: LC 50%): > 10 µM
- GI50 ([6]; Homo sapiens, OVCAR-5): 2.24 µM
- CC50 ([6]; Homo sapiens, OVCAR-5, read-out: LC 50%): > 10 µM
- GI 100% ([6]; OVCAR-5, Ovarian Cancer): 5.71 µM
- GI50 [7]: 2.32 µM
- CC50 [7]: > 10 µM
- GI 100% [7]: >10 µM
- GI50 ([8]; Homo sapiens, NCI-H226): 0.688 µM
- CC50 ([8]; Homo sapiens, NCI-H226, read-out: LC 50%): > 10 µM
- GI 100% ([8]; NCI-H226, Non-small cell lung carcinoma): 2.79 µM
- GI 100% [9]: 1.57 µM
- GI50 ([10]; Homo sapiens, NCI-H460): 1.43 µM
- CC50 ([10]; Homo sapiens, NCI-H460, read-out: LC 50%): 6.74 µM
- GI 100% ([10]; NCI-H460, Non-small cell lung carcinoma): 3.11 µM
- GI50 ([11]; Homo sapiens, IGROV-1): 0.0209 µM
- CC50 ([11]; Homo sapiens, IGROV-1, read-out: LC 50%): 0.27 µM
- GI 100% ([11]; IGROV1, Ovarian Cancer): 0.0571 µM
- GI50 ([12]; Homo sapiens, U-251): 1.1 µM
- CC50 ([12]; Homo sapiens, U-251, read-out: LC 50%): 4.79 µM
- GI 100% ([12]; U251, CNS Cancer): 2.3 µM
- GI50 ([13]; Homo sapiens, SK-OV-3): 1.68 µM
- CC50 ([13]; Homo sapiens, SK-OV-3, read-out: LC 50%): 6.67 µM
- GI 100% ([13]; SK-OV-3, Ovarian Cancer): 3.34 µM
- GI50 ([14]; Homo sapiens): 2.31 µM
- CC50 ([14]; Homo sapiens, read-out: LC 50%): > 10 µM
- GI 100% ([14]; Non-small cell lung carcinoma): 5.63 µM
- GI50 ([15]; Homo sapiens): 3.6 µM
- CC50 ([15]; Homo sapiens, read-out: LC 50%): > 10 µM
- GI 100% ([15]; Non-small cell lung carcinoma): >10 µM
- GI 100% [16]: 0.537 µM
- GI 100% ([17]; HCT-15, Colon Cancer): 2.83 µM
- GI50 ([17]; Homo sapiens, HCT-15): 1.45 µM
- CC50 ([17]; Homo sapiens, HCT-15, read-out: LC 50%): 5.54 µM
- GI50 ([18]; Homo sapiens, SNB-19): 2.35 µM
- CC50 ([18]; Homo sapiens, SNB-19, read-out: LC 50%): > 10 µM
- GI 100% ([18]; SNB-19, CNS Cancer): 7.41 µM
- GI50 [19]: 1.38 µM
- CC50 [19]: 5.16 µM
- GI 100% [19]: 2.67 µM
- GI50 [20]: 1.62 µM
- CC50 [20]: 6.76 µM
- GI 100% [20]: 3.31 µM
- GI 100% ([21]; HCC-2998, Colon Cancer): 5.1 µM
- GI50 ([21]; Homo sapiens, HCC 2998): 2.01 µM
- CC50 ([21]; Homo sapiens, HCC 2998, read-out: LC 50%): > 10 µM
- GI 100% ([22]; CAKI-1, Renal Cancer): 0.0381 µM
- GI50 ([22]; Homo sapiens, CAKI-1): 0.0211 µM
- CC50 ([22]; Homo sapiens, CAKI-1, read-out: LC 50%): 0.0687 µM

Compound: CCc1c(O)c2c(c(O)c1O[C@H]1O[C@@H](COC(C)=O)[C@H](OC(C)=O)[C@@H](CC(C)=O)[C@@H]1OC(C)=O)C(=O)C(O[C@@H]1O[C@H](COC(C)=O)[C@@H](OC(C)=O)[C@H](OC(C)=O)[C@H]1OC(C)=O)=C(O[C@@H]1O[C@H](COC(C)=O)[C@@H](OC(C)=O)[C@H](OC(C)=O)[C@H]1OC(C)=O)C2=O [Compound 6]
- GI 100% [1]: >10 µM
- GI50 [1]: 5.28 µM
- CC50 [1]: > 10 µM
- GI50 [4]: 1.55 µM
- CC50 [4]: 9.18 µM
- GI 100% [4]: 3.78 µM
- GI50 [7]: 4.22 µM
- CC50 [7]: > 10 µM
- GI 100% [7]: >10 µM
- GI 100% [9]: >10 µM
- GI 100% [16]: 2.38 µM
- GI50 [19]: 5 µM
- CC50 [19]: > 10 µM
- GI 100% [19]: >10 µM
- GI50 [20]: 1.46 µM
- CC50 [20]: 6.63 µM
- GI 100% [20]: 3.11 µM
